In ChEMBL document CHEMBL1201862, “PubChem BioAssay data set” (2004):
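Where inhibition never reached the appropriate level, the endpoint shown equals the highest concentration tested. Otherwise, values were interpolated linearly from a five-concentration, 48-hour dose response in 96-well plates. At the GI50, growth is halved.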 Active and inactive are the calls of the source. Rule as the data show it: active = GI50 up to about 1.1 µM and inactive = higher.

How the values were obtained:
Experiment in all cases: inhibition of tumour cell growth, NCI panel, 48 h
SF-268 = test system: SF-268
OVCAR-8 = test system: OVCAR-8
KM12 = test system: KM12
RPMI-8226 = test system: RPMI-8226
RXF 393 = test system: RXF 393
CAKI-1 = test system: CAKI-1
HL-60 = test system: HL-60
SW-620 = test system: SW-620
IGROV-1 = test system: IGROV-1
HCT-15 = test system: HCT-15
SR = test system: SR
NCI-H460 = test system: NCI-H460
K562 = test system: K562
M14 = test system: M14
DLD-1 = test system: DLD-1
CCRF-CEM = test system: CCRF-CEM
ACHN = test system: ACHN
HOP-92 = test system: HOP-92

N#CC(C#N)=Cc1cccc(Oc2ccccc2)c1
GI50 (SF-268): 19.1 µM (inactive) | GI50 (OVCAR-8): 19.1 µM (inactive) | GI50 (KM12): 22.3 µM (inactive) | GI50 (RPMI-8226): 20.9 µM (inactive) | GI50 (RXF 393): 17.7 µM (inactive) | GI50 (CAKI-1): 25.6 µM (inactive) | GI50 (HL-60): 18.5 µM (inactive) | GI50 (SW-620): 25.6 µM (inactive) | GI50 (IGROV-1): 26.8 µM (inactive) | GI50 (HCT-15): 35.1 µM | GI50 (SR): 8.93 µM (inactive) | GI50 (NCI-H460): 25.5 µM (inactive) | GI50 (K562): 23.7 µM (inactive) | GI50 (M14): 19.6 µM (inactive) | GI50 (DLD-1): 22.5 µM (inactive) | GI50 (CCRF-CEM): 20.6 µM (inactive) | GI50 (ACHN): 18.2 µM (inactive)

O=C(NC1CCC[C@H]1OC(=O)c1ccccc1)c1ccccc1 (some centres undefined)
GI50 (SF-268): 86.5 µM (inactive) | GI50 (OVCAR-8): > 100 µM (inactive) | GI50 (KM12): 69.8 µM (inactive) | GI50 (RXF 393): > 100 µM (inactive) | GI50 (CAKI-1): 85.7 µM (inactive) | GI50 (HL-60): 32.2 µM (inactive) | GI50 (SW-620): > 100 µM (inactive) | GI50 (IGROV-1): > 100 µM (inactive) | GI50 (HOP-92): 25.6 µM (inactive) | GI50 (SR): 47.2 µM (inactive) | GI50 (NCI-H460): > 100 µM (inactive) | GI50 (K562): 38 µM (inactive) | GI50 (M14): > 100 µM (inactive) | GI50 (DLD-1): 24.4 µM (inactive) | GI50 (CCRF-CEM): > 100 µM (inactive) | GI50 (ACHN): > 10 µM (inactive)

CCC1(CN(C)C)CC/C(=C\c2ccc(OC)c(OC)c2)C1=O (centres undefined)
GI50 (SF-268): > 100 µM (inactive) | GI50 (OVCAR-8): > 100 µM (inactive) | GI50 (KM12): > 100 µM (inactive) | GI50 (RPMI-8226): 18.2 µM (inactive) | GI50 (RXF 393): > 100 µM (inactive) | GI50 (CAKI-1): 74.5 µM (inactive) | GI50 (SW-620): > 100 µM (inactive) | GI50 (IGROV-1): > 100 µM (inactive) | GI50 (HCT-15): > 100 µM | GI50 (HOP-92): > 100 µM (inactive) | GI50 (SR): < 0.01 µM (active) | GI50 (NCI-H460): > 100 µM (inactive) | GI50 (K562): 57.4 µM (inactive) | GI50 (M14): > 100 µM (inactive) | GI50 (DLD-1): > 80.7 µM (inactive) | GI50 (CCRF-CEM): > 68.9 µM (inactive) | GI50 (ACHN): > 100 µM (inactive)

COc1ccc2c(c1)[n+]([O-])c(-c1ccc([N+](=O)[O-])cc1)c(N)[n+]2[O-]
GI50 (SF-268): 78.2 µM (inactive) | GI50 (OVCAR-8): > 100 µM (inactive) | GI50 (KM12): > 100 µM (inactive) | GI50 (RXF 393): > 100 µM (inactive) | GI50 (CAKI-1): > 100 µM (inactive) | GI50 (HL-60): 57.5 µM (inactive) | GI50 (SW-620): > 100 µM (inactive) | GI50 (IGROV-1): 75.2 µM (inactive) | GI50 (HOP-92): > 100 µM (inactive) | GI50 (SR): 18.7 µM (inactive) | GI50 (NCI-H460): 49.5 µM (inactive) | GI50 (K562): 32.6 µM (inactive) | GI50 (M14): > 100 µM (inactive) | GI50 (DLD-1): 63.1 µM (inactive) | GI50 (CCRF-CEM): 56.5 µM (inactive) | GI50 (ACHN): > 100 µM (inactive)

Cc1c(C(=O)Nc2ccc(Cl)cc2)nc(N)nc1-c1cccc(Cl)c1
GI50 (SF-268): > 100 µM (inactive) | GI50 (OVCAR-8): > 100 µM (inactive) | GI50 (KM12): 46.6 µM (inactive) | GI50 (RXF 393): 39.5 µM (inactive) | GI50 (CAKI-1): 68.7 µM (inactive) | GI50 (HL-60): 39.2 µM (inactive) | GI50 (SW-620): 62.7 µM (inactive) | GI50 (IGROV-1): > 100 µM (inactive) | GI50 (HOP-92): 28.4 µM (inactive) | GI50 (SR): > 100 µM (inactive) | GI50 (NCI-H460): 66.2 µM (inactive) | GI50 (K562): 38.5 µM (inactive) | GI50 (M14): 55.7 µM (inactive) | GI50 (DLD-1): > 100 µM (inactive) | GI50 (CCRF-CEM): > 100 µM (inactive) | GI50 (ACHN): > 100 µM (inactive)

Cn1cnc([N+](=O)[O-])c1Sc1nc2cccnc2s1
GI50 (SF-268): 28.8 µM (inactive) | GI50 (OVCAR-8): 16.1 µM (inactive) | GI50 (KM12): 31.6 µM (inactive) | GI50 (RPMI-8226): 19.2 µM (inactive) | GI50 (RXF 393): 17.8 µM (inactive) | GI50 (CAKI-1): 7.93 µM (inactive) | GI50 (SW-620): 12 µM (inactive) | GI50 (IGROV-1): 17.5 µM (inactive) | GI50 (HCT-15): 11.6 µM | GI50 (HOP-92): 18.5 µM (inactive) | GI50 (SR): 16 µM (inactive) | GI50 (NCI-H460): 34.1 µM (inactive) | GI50 (M14): 13.7 µM (inactive) | GI50 (DLD-1): 12.8 µM (inactive) | GI50 (ACHN): 24.5 µM (inactive)

Cc1ccc(C)c(NC(=O)c2cccc([N+](=O)[O-])c2O)c1
GI50 (SF-268): 22 µM (inactive) | GI50 (OVCAR-8): 32.1 µM (inactive) | GI50 (KM12): 23.7 µM (inactive) | GI50 (RPMI-8226): 5.71 µM (inactive) | GI50 (RXF 393): 0.871 µM (active) | GI50 (CAKI-1): 30.8 µM (inactive) | GI50 (HL-60): > 100 µM (inactive) | GI50 (SW-620): 37.6 µM (inactive) | GI50 (IGROV-1): 22.2 µM (inactive) | GI50 (HCT-15): 28.8 µM | GI50 (HOP-92): 12.7 µM (inactive) | GI50 (NCI-H460): 20.9 µM (inactive) | GI50 (K562): > 100 µM (inactive) | GI50 (M14): 55.6 µM (inactive) | GI50 (DLD-1): 27.8 µM (inactive) | GI50 (CCRF-CEM): > 100 µM (inactive) | GI50 (ACHN): 15.1 µM (inactive)
